Source: patent US6984484B1, “Mammalian serine racemase” (The Johns Hopkins University, priority 1999, dated 2006)
Values belong to the molecule of their own block, whether it stands above or below them.

Tests used:
serine racemase [1] = target: T1, serine racemase (Rattus norvegicus, UniProt Q76EQ0); experiment: Absorption spectra of purified serine racemase; conditions: 70 μg/ml enzyme preincubated 10 minutes with 1 mM AOAA (FIG. 5)
T1 construct: the rat brain enzyme we have purified; from tissue; host or cells: rat brain (10–14 day old Sprague-Dawley rats)
T1 sequence (Q76EQ0 1-333): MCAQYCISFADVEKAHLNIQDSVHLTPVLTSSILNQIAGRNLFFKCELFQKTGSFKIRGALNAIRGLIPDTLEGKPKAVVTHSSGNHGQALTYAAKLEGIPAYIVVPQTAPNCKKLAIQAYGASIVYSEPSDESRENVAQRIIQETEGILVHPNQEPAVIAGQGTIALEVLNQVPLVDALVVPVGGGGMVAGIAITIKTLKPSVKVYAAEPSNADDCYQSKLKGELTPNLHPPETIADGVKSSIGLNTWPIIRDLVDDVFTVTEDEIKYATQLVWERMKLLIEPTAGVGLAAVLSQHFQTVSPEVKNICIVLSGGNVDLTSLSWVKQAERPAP
Method: FIG. 5. Absorption spectra of purified serine racemase. Purified enzyme (70 μg/ml) was preincubated for 10 minutes in medium containing 10 mM KPi (pH 7.2), 2 mM DTT, 1 mM EDTA, 10 μM PLP, either in the absence (Control) or in the presence of 1 mM aminooxyacetic acid (AOAA). The distinct peaks of absorbance at 420 and 340 nm were not observed in the presence of buffer alone or when bovine serum albumin was used instead of serine racemase.
For most applications the purified protein was further concentrated using centriplus 30. Protein concentration was determined with Coomassie plus protein assay reagent (Pierce). Enzyme-bound PLP was determined at room temperature by recording the absorbance of the purified protein in the range of 500 to 280 nm using a Lambda Bio spectrophotometer (Perkin Elmer).
Examination of the absorption spectrum of the enzyme confirms the importance of PLP. […] The peak at 420 nm, corresponding to a Schiff's base complex of PLP with an active site lysine, is abolished by treatment with AOAA (FIG. 5).

serine racemase [2] = target: T1, serine racemase; experiment: Inhibition of serine racemase by PLP inhibitors and sulfhydryl oxidation; PLP requirement; type: biochemical; conditions: for Effect on enzyme activity (PLP inhibitors): 37° C., pH 8.0, 20 mM L-serine, 2 mM DTT, 10 μM PLP, different concentrations (FIG. 4A)
Method: FIG. 4. inhibition of serine racemase by PLP inhibitors and sulfhydryl oxidation. FIG. 4A. Enzyme activity was monitored at 37° C. in a medium containing 50 mM Tris-HCl (pH 8.0), 20 mM L-serine, 40–100 μg/ml purified enzyme, 1 mM EDTA, 2 mM DTT, 10 μM pyridoxal 5′-phosphate and different concentrations of either aminooxyacetic acid (◯) or hydroxylamine (●). FIG. 4B. Reaction medium and conditions were as described in A, except that DTT was omitted from the last step of the enzyme preparation. The enzyme was preincubated for 10 minutes in the presence of different concentrations of oxidized glutathione (GSSG).
D-serine formation was monitored by a chemiluminescent assay that specifically detects D-serine. Racemase activity was performed in the presence of 50 mM Tris-HCl (pH 8.0), 18 μl enzyme extract, 1 mM EDTA, 2 mM DTT, 15 μM pyridoxal 5′-phosphate (PLP), and 20 mM L-serine. After 0.5 to 8 hours incubation at 37° C., the reaction was terminated by the addition of trichloroacetic acid (TCA) to a final concentration of 5%. Blanks employed boiled enzyme extract. The precipitated protein was removed by centrifugation, and the supernatant was extracted 2 times with 1 ml of water-saturated diethyl ether to remove TCA. D-serine concentration was determined by incubation of the samples with D-amino acid oxidase, which specifically degrades D-amino acids, generating an α-keto acid, NH3 and hydrogen peroxide (16).
The generation of hydrogen peroxide was quantitated by the use of peroxidase and luminol, which emits light. A 10 μl sample aliquot was added to 100 μl of medium containing 100 mM Tris-HCl (pH 8.8), 10 U/ml peroxidase, and 8 μM luminol. After a 10 to 20 minute delay required to decrease the nonspecific luminol luminescence, 10 μl of D-amino acid oxidase (75 U/ml) were added, and the tubes were gently mixed with a pipette tip. Maximum luminescence was recorded after 10 to 15 minutes at room temperature using a Monolight 2010 luminometer (Analytical Luminescence Laboratory). The amount of D-serine in each sample was calculated by comparison with standard curves. The measurements were reliable in the range of 50 to 2000 pmol D-serine per sample. […] Alternatively, amino acid enantiomers were separated by high performance liquid chromatography (HPLC) using a carbon 18 reverse phase column (RP18 Spheri-5, 22 cm×4.6 mm, Perkin Elmer) with fluorimetric detection after derivatization with L-Boc-cys and OPA, as described (17). The results obtained with chemiluminescent assay were identical to those obtained using HPLC. […]
We wondered whether conversion of L to D-serine might be a by-product of a different enzyme activity with non-enzymatic racemization giving rise to D-serine. Accordingly, we monitored by HPLC levels of L and D-serine at different incubation times (Table 2). […]

[3] = target: NMDA receptor "glycine site" (Homo sapiens, UniProt Q05586); conditions: reference 14; cited from earlier work
serine racemase [4] = target: T1, serine racemase; experiment: Substrate specificity of serine racemase; type: biochemical; conditions: for Specific activity / % control: 20 mM L-amino acids; for Specific activity: 37° C., pH 8.0, 8 h, HPLC; for % control: activity relative to L-serine, 8 h; for Racemase activity with the amino acid: purified enzyme
Method: (§1) The generation of hydrogen peroxide was quantitated by the use of peroxidase and luminol, which emits light. A 10 μl sample aliquot was added to 100 μl of medium containing 100 mM Tris-HCl (pH 8.8), 10 U/ml peroxidase, and 8 μM luminol. After a 10 to 20 minute delay required to decrease the nonspecific luminol luminescence, 10 μl of D-amino acid oxidase (75 U/ml) were added, and the tubes were gently mixed with a pipette tip. Maximum luminescence was recorded after 10 to 15 minutes at room temperature using a Monolight 2010 luminometer (Analytical Luminescence Laboratory). The amount of D-serine in each sample was calculated by comparison with standard curves. The measurements were reliable in the range of 50 to 2000 pmol D-serine per sample. […] Alternatively, amino acid enantiomers were separated by high performance liquid chromatography (HPLC) using a carbon 18 reverse phase column (RP18 Spheri-5, 22 cm×4.6 mm, Perkin Elmer) with fluorimetric detection after derivatization with L-Boc-cys and OPA, as described (17). The results obtained with chemiluminescent assay were identical to those obtained using HPLC.
The presence of trace amounts of D-serine in the commercial L-serine reagent generates high blank values. Thus, the stock solution of L-serine (100 mM) was routinely pre-treated for 3 days with 30 units of D-amino acid oxidase and 500 units of catalase to remove any D-serine contaminant. The enzymes were precipitated by the addition of 5% TCA. After removal of TCA by extraction with diethyl ether, the L-serine solution was neutralized with NaOH and could be used without further purification, being virtually free of any D-serine contaminant. The same purification procedure was applied for L-alanine and L-threonine.
Additionally, we examined the purified enzyme for the presence of other enzyme activities which might indirectly contribute to D-serine formation. We found no evidence for serine: pyruvate aminotransferase activity, as L-serine levels were not altered in the presence of pyruvate. […] There is no evidence for serine dehydratase activity which would be associated with a marked decrease in L-serine levels.

serine racemase [5] = target: T1, serine racemase; experiment: Racemization of L-serine over time, L- and D-serine by HPLC; type: biochemical
Method: as §1
We wondered whether conversion of L to D-serine might be a by-product of a different enzyme activity with non-enzymatic racemization giving rise to D-serine. Accordingly, we monitored by HPLC levels of L and D-serine at different incubation times (Table 2). Increases in formation of D-serine are paralleled by stoichiometric decreases in levels of L-serine, making it unlikely that L-serine is converted to any other compound by the enzyme.

[6] = time 0, 4 mM L-serine, 40 μg/ml purified enzyme, 37° C.

Molecule: NOCC(=O)O [Aminooxyacetic acid, aminooxyacetic acid]
Absorption peak at 420 nm of the enzyme (Schiff's base complex of PLP) (serine racemase [1]): abolished
Effect on enzyme activity (PLP inhibitors) (serine racemase [2]): inhibit enzyme activity

Molecule: N[C@H](CO)C(=O)O [D-serine]
Potency relative to glycine at the glycine site [3]: up to three times more potent than glycine

Molecule: C[C@H](N)C(=O)O [L-alanine]
Specific activity (serine racemase [4]): 0.012 µmol/mg/h

Molecule: NO [hydroxylamine]
Effect on enzyme activity (PLP inhibitors) (serine racemase [2]): inhibit enzyme activity

Molecule: oxidized glutathione
Effect on enzyme activity (sulfhydryl oxidation) (serine racemase [2]; DTT omitted, enzyme preincubated for 10 minutes with different concentrations (FIG. 4B)): markedly reduces enzyme activity

Further lines, results first:

Specific activity (serine racemase [4]): 0 µmol/mg/h
% control (serine racemase [4]): 0%
Racemase activity with the amino acid (serine racemase [4]): no activity
Molecule: N[C@@H](CC(=O)O)C(=O)O [L-aspartate]

Specific activity (serine racemase [4]): 4.8 µmol/mg/h
% control (serine racemase [4]): 100%
[D-sertne] (serine racemase [5]; [6]): 0.0007 mM
[L-serine] (serine racemase [5]; [6]): 4.00 mM
[D-sertne] (serine racemase [5]; time 0.5 h): 0.042 mM
[L-serine] (serine racemase [5]; time 0.5 h): 3.96 mM
[D-sertne] (serine racemase [5]; time 1 h): 0.101 mM
[L-serine] (serine racemase [5]; time 1 h): 3.93 mM
[D-sertne] (serine racemase [5]; time 4 h): 0.342 mM
[L-serine] (serine racemase [5]; time 4 h): 3.65 mM
Molecule: N[C@@H](CO)C(=O)O [L-serine]

Specific activity (serine racemase [4]): 0 µmol/mg/h
Racemase activity with the amino acid (serine racemase [4]): no activity
Molecule: C[C@@H](O)[C@H](N)C(=O)O [L-threonine]

Enzyme activity after dialysis without PLP, on addition of PLP (serine racemase [2]; dialysis for 16 hours against 1,000 volumes of purification buffer without PLP): can be restored by the addition of PLP
Molecule: Cc1ncc(COP(=O)(O)O)c(C=O)c1O [PLP, pyridoxal 5′-phosphate]
